Test results as given in PMC11638965, “Leveraging Dual-Ligase Recruitment to Enhance Protein Degradation via a Heterotrivalent Proteolysis Targeting Chimera” (Journal of the American Chemical Society, 2024).
“Also recorded” adds a separate entry of the source.

Tests used:
[1] = tested on: HiBiT-BRD4 and HaloTag-CRBN; test: NanoBRET live cell ternary complex formation assay; type: cell-based, human; settings: for ternary complex formation between BRD4 and CRBN (in words): HiBiT-BRD4 HEK293 cells, HaloTag-CRBN, MG132 pretreatment, 0.01, 0.1 and 1 μM, 3.5 h; for time to plateau of ternary complex signal with CRBN: NanoBRET, HiBiT-BRD4 HEK293 cells with HaloTag-CRBN
Description: (§1) NanoBRET ternary complex assays were performed using Promega kits for CRBN (ND2720) and VHL (ND2700) according to manufacturer’s instructions. One day prior to the assay, HEK293 HiBiT-BRD4 (LgBiT Stable) were plated at a density of 800,000 cells/well in a 6-well plate. Cells were allowed to adhere for at least 4 h. Transfection mixtures containing 100 μL Opti-MEM, 6 μL FuGENE HD, and either 2 μg HaloTag-CRBN or HaloTag-VHL were prepared and allowed to incubate for 10 min at room temperature prior to addition to the cells. The next day, cells were trypsinized and resuspended in phenol red-free Opti-MEM Reduced Serum Medium supplemented with 4% FBS. Cells were counted and density was adjusted to 200,000 cells/mL. Cells were divided into two pools: one which received HaloTag NanoBRET 618 Ligand at a final concentration of 100 nM and one which received the same volume of DMSO. Cells were plated on white tissue-culture 96-well plates (100 μL/well) and allowed to adhere overnight. The next day, media was aspirated from the cells and replaced with phenol red-free Opti-MEM Reduced Serum medium supplemented with 4% FBS and a 1:100 dilution of Nano-Glo Vivazine substrate (Promega) and 10 μM MG132. Luminescence was allowed to equilibrate at 37 °C, 5% CO2 for 1 h. During this time, a dilution series of each PROTAC at 10x the desired final concentration was prepared (keeping DMSO constant in all concentrations). 10 μL of this dilution series was added to the plate after luminescence equilibration, and kinetic measurements of donor emission at 460 nm and acceptor emission at 618 nm were collected every 3 min using a ClarioStar plate reader. milliBRET ratios were calculated as (Emission at 618 nm/Emission at 460 nm) × 1000. Donor-contributed background or bleedthrough was corrected for by subtracting milliBRET ratios from no ligand control cells from treated cells. Corrected milliBRET ratios were plotted as a function of time in GraphPad Prism.

[2] = tested on: HiBiT-BRD4 and HaloTag-VHL; test: NanoBRET live cell ternary complex formation assay; type: cell-based, human; settings: HiBiT-BRD4 HEK293 cells, MG132 pretreatment, 0.01, 0.1 and 1 μM, 3.5 h
Description: as §1

HEK293 cells = test: TMT mass spectrometry proteomics; type: cell-based, Human; settings: 250 nM, 4 h; for proteins significantly depleted/downregulated, proteome-wide: 7276 proteins detected, relative to DMSO
Description: S-Trap micro spin column digestion was performed according to the manufacturer’s protocol. Briefly, HEK293 cells were treated with DMSO, 250 nM neg-cis-AB3067 (95) or 250 nM AB3067 (27) for 4 h; cells were harvested and washed with PBS and spun. Cell pellets were solubilized in 5% SDS, 50 mM triethylammonium bicarbonate, reduced with 100 mM DTT solution and alkylated with iodoacetamide to a final concentration of 40 mM. Aqueous phosphoric acid was added to a final concentration of 1.2%. Protein particulate was formed by adding S-Trap binding buffer [90% aqueous methanol, 100 mM TEAB (pH 7.1)]. The mixture was placed on S-Trap micro 1.7 mL columns and centrifuged at 4000 × g for 10 s. Columns were washed with 150 μL of S-Trap binding buffer five times and centrifuged at 4000 × g for 10 s. Samples were digested with 2 μg of trypsin (Promega) at 37 °C for four h. Peptides were eluted with 40 μL of 50 mM TEAB followed by 40 μL of 0.2% aqueous formic acid, and peptides were finally vacuum-dried. TMT15plex labeling of DMSO, 250 nM neg-cis-AB3067 (95) or 250 nM AB3067 (27) conditions were performed, with five biological replicates for each condition and peptide cleanup was performed according to the manufacturer’s protocol. After checking the labeling efficiency, samples were combined, desalted, and dried under vacuum. TMT samples were fractionated using offline high-pH reverse-phase chromatography. Peptides were separated, concatenated to 22 fractions, dried, and peptides redissolved in 5% formic acid and analyzed by LC–MS.
The raw mass spectrometric data were loaded into MaxQuant. Enzyme specificity was set to that of trypsin/P, allowing for cleavage of N-terminal to proline residues and between aspartic acid and proline residues. Other parameters used were as follows: (i) variable modifications—methionine oxidation, protein N-acetylation; (ii) fixed modifications, cysteine carbamidomethylation; (iii) database: Uniprot; -Human (iv) labels: 15-plex TMT (v) MS/MS tolerance: FTMS- 20 ppm, (vi) minimum peptide length, 7; (vii) maximum missed cleavages, 2; and (viii) and (ix) PSM and Protein false discovery rate, 1%. Reporter ion intensities (corrected) results from MaxQuant were imported into excel for bioinformatic analysis. The normalized corrected reporter ion intensities for each label were used to calculate ratios, and all “Contaminant,″ “Reverse”, and “Only identified by site” proteins were removed from the data. Proteins above or below twofold change [log2(2) = 1], and a nominal p-value less than 0.03 [−log10(0.03) = 1.5] were considered as differentially expressed proteins. The final volcano plot was produced in GraphPad prism 10 version [10.2.2].

Row | SMILES | ternary complex formation between BRD4 and CRBN (in words) [1] | time to plateau of ternary complex signal with CRBN [1] [min] | ternary complex formation between BRD4 and VHL (in words) [2] | CRBN abundance (HEK293 cells) | EID2 abundance (HEK293 cells) | proteins significantly depleted/downregulated, proteome-wide (HEK293 cells) | ternary complex formation between BRD4 and CRBN (in words) ([1]; listed as 27) | ternary complex formation between BRD4 and VHL (in words) ([2]; listed as 27)
1 | Cc1ncsc1-c1ccc(CNC(=O)[C@@H]2C[C@@H](O)CN2C(=O)[C@@H](NC(=O)COCC(C)(COCCOCCOCCNc2cc3c(cc2F)C(=O)N(C2CCC(=O)NC2=O)C3=O)COCCOCCOCCOC(=O)C[C@@H]2N=C(c3ccc(Cl)cc3)c3c(sc(C)c3C)-n3c(C)nnc32)C(C)(C)C)cc1 (mixture of isomers) [AB3063 (26), (17S)-11-((2-(2-(2-((2-(2,6-dioxopiperidin-3-yl)-6-fluoro-1,3-dioxoisoindolin-5-yl)amino)ethoxy)ethoxy)ethoxy)methyl)-17-((2S,4R)-4-hydroxy-2-((4-(4-methylthiazol-5-yl)benzyl)carbamoyl)pyrrolidine-1-carbonyl)-11,18,18-trimethyl-15-oxo-3,6,9,13-tetraoxa-16-azanonadecyl 2-((S)-4-(4-chlorophenyl)-2,3,9-trimethyl-6H-thieno[3,2-f][1,2,4]triazolo[4,3-a][1,4]diazepin-6-yl)acetate] | can engage and form ternary complexes | 30 | can engage and form ternary complexes |  |  |  |  | 
2 | Cc1ncsc1-c1ccc([C@H](C)NC(=O)[C@@H]2C[C@@H](O)CN2C(=O)[C@@H](NC(=O)COCC(C)(COCCOCCOCCNc2cc3c(cc2F)C(=O)N(C2CCC(=O)NC2=O)C3=O)COCCOCCOCCOC(=O)C[C@@H]2N=C(c3ccc(Cl)cc3)c3c(sc(C)c3C)-n3c(C)nnc32)C(C)(C)C)cc1 (mixture of isomers) [AB3067 (27), (17S)-11-((2-(2-(2-((2-(2,6-dioxopiperidin-3-yl)-6-fluoro-1,3-dioxoisoindolin-5-yl)amino)ethoxy)ethoxy)ethoxy)methyl)-17-((2S,4R)-4-hydroxy-2-(((S)-1-(4-(4-methylthiazol-5-yl)phenyl)ethyl)carbamoyl)pyrrolidine-1-carbonyl)-11,18,18-trimethyl-15-oxo-3,6,9,13-tetraoxa-16-azanonadecyl 2-((S)-4-(4-chlorophenyl)-2,3,9-trimethyl-6H-thieno[3,2-f][1,2,4]triazolo[4,3-a][1,4]diazepin-6-yl)acetate] |  | 30 |  | not significantly depleted | significantly downregulated | all three BET proteins, BRD2, BRD3 and BRD4, were significantly depleted | can engage and form ternary complexes; also recorded: more robust dose–response with both VHL and CRBN than 26 | can engage and form ternary complexes; also recorded: more robust dose–response with both VHL and CRBN than 26
3 | Cc1ncsc1-c1ccc([C@H](C)NC(=O)[C@@H]2C[C@H](O)CN2C(=O)[C@@H](NC(=O)COCC(C)(COCCOCCOCCNc2cc3c(cc2F)C(=O)N(C2CCC(=O)N(C)C2=O)C3=O)COCCOCCOCCOC(=O)C[C@@H]2N=C(c3ccc(Cl)cc3)c3c(sc(C)c3C)-n3c(C)nnc32)C(C)(C)C)cc1 (mixture of isomers) [neg-cis-AB3067 (95), (17S)-11-((2-(2-(2-((6-fluoro-2-(1-methyl-2,6-dioxopiperidin-3-yl)-1,3-dioxoisoindolin-5-yl)amino)ethoxy)ethoxy)ethoxy)methyl)-17-((2S,4S)-4-hydroxy-2-(((S)-1-(4-(4-methylthiazol-5-yl)phenyl)ethyl)carbamoyl)pyrrolidine-1-carbonyl)-11,18,18-trimethyl-15-oxo-3,6,9,13-tetraoxa-16-azanonadecyl 2-((S)-4-(4-chlorophenyl)-2,3,9-trimethyl-6H-thieno[3,2-f][1,2,4]triazolo[4,3-a][1,4]diazepin-6-yl)acetate] |  |  |  |  |  | no protein was significantly downregulated |  | 
